Reference: patent US20260285924A1, “PEPTIDE THERAPEUTICS” (priority 2023, published 2026)
“Also recorded” adds a separate entry of the source.

Key:
[1] = test system: A375-WT; assay: Pan-Cancer PepTile/PiTile fitness screen (lentiviral 40-mer peptide library, NGS abundance); format: cell-based, human; parameters: key: enrichment of each peptide's NGS abundance, early day vs Day 14; settings: for A375-WT Fitness Score: Pan-Cancer library, peptide enrichment day 14 vs day 0
From the text: FIGS. 13A-13D show Pan-Cancer PiTile Workflow. (A) The Pan-Cancer peptide library is composed of 1081 proteins tiled into 40-mer peptides at every 6 amino acids of the parental protein. The DNA-encoded library is cloned into lentiviral vectors and packaged into lentivirus. (B) A375 cell line was transduced with the Pan-Cancer PiTile library. Genomic DNA was then harvested at Day2 and Day 14 post-transduction and cell populations abundance expressing the different peptides were quantified using Next-Generation Sequencing (NGS). Peptide fitness score was then calculated by the abundance of each peptide at Day2 versus Day 14. Then the fitness signal is mapped over the original amino acid positions of the derived protein. (C) Coverage of the plasmid Pan-Cancer library and peptide-amplicons from Day2 and Day 14 replicated was determined by NGS. (D) Dot plot of the experimental result obtain from screening the Pan-Cancer library in A375 cell line.
(§1) A peptide tilling screen was performed in A375 similarly to a screen done in MDA-MB-231 (FIG. 1) but with a different lentiviral library. The library (Pan-Cancer library) is composed of 1020 genes tiled every 6 amino acids into 40-mer amino acid long peptides. The gene selection was based on their implication in oncogenesis either being as oncogenes or tumor suppressors. The list was built using recent literature that identified new cancer drivers as well as databases such as Uniprot keywords (KW-0656: Proto-oncogene, KW-0043: Tumor suppressor), and Gene Ontology terms (GO1900117: Apoptosis, GO1901979: Cell cycle checkpoint) (FIG. 2). Aside from Human genes, a list of viral genes was also included (KW-1121: Modulation of host cell cycle by virus) that play roles in high jacking cell cycle progression and thus in oncogenesis (FIG. 2).
(§2) The model of study is melanoma, and this disease is stratified into 4 molecular subtypes, BRAF mutants, NRAS mutants, KIT amplification, NF1 mutations (FIG. 3A). The most prominent mutations found in patient affected with metastatic melanomas are BRAF^V600E and NRAS^Q61K (FIG. 3B). RAS play a key role in oncogenesis and resistance to treatments. Indeed, RAS activating mutations is found in ~20% of all human cancers and secondary NRAS mutation leads to acquired resistance to BRAF targeted therapy such as vemurafenib. Thus, the screen was performed in an A375 cell line model which derived from human BRAF^V600E melanoma as well as an engineered A375 transduced with HA-NRAS^Q61K (FIG. 4A, B). Both cell lines grow at a similar rate but the A375-NRAS^Q61K display more than 10-fold resistance to vemurafenib treatment compared to parental A375 (FIG. 4C, D).
(§3) These cells were transduced with the Pan-Cancer library at a low multiplicity of infection (MOI=0.1-0.3). Then, genomic DNA was extracted at day 0 and day 14 post-transduction to quantify the abundance of peptide for each temporal conditions using Next-generation sequencing. Each experimental replicates were deep sequenced with at least 150 million reads and show a coverage between 82-90% of the initial Pan-Cancer Peptide library (FIG. 5). Then, for each individual peptides a cellular fitness score was calculated based on their enrichment between day 0 and day 14. 8090 peptides negatively affecting growth of A375-WT were identified and 8153 peptides for the A375-NRAS^Q61K cell line (FIG. 6). […] Those common hits are found to be tiles from ~100 genes of the Pan-Cancer gene list and show a substantial biological function clustering.
We built a DNA-encoded peptide library composed of all known Human oncogenes and Tumor Suppressors that we fragmented in 40 amino acid long peptides, the Pan-Cancer library. Using lentiviral expression system, we transduced the Pan-Cancer library in A375 cell line. After 14 days of growth, the frequency of each peptide is measured by NGS and this reveal which peptides affect cell fitness. […]

[2] = test system: A375-NRAS^Q61K; assay: Pan-Cancer PepTile fitness screen (lentiviral 40-mer peptide library, NGS abundance); format: cell-based, human; settings: peptide enrichment day 14 vs day 0
Protocol: as §1, §2, §3

[3] = test system: A375-WT; assay: Validation assay: cell growth (CCK8, 48 hours after plating) of cells transduced with single peptide tiles; format: cell-based, human; settings: peptide overexpression
Protocol: (§4) FIGS. 9A-9C. (A) Fitness screen validation assay workflow. (B) Validation assay results (C) Fitness screen results.
(§5) FIGS. 14A-14E show PiTiles derived from DNA-binding domains of MYC and SOX17 inhibit transcriptional program. (A) Experimental workflow of A375 cell line individually transduced with lentivirus expressing GFP_147, MYC_384 or SOX17_96. 5 days post-transductions, RNA was harvested for RNA sequencing. Additionally, cells were plated for a 48-hour growth assay. (B) Cell growth of A375 cell line expressing GFP_147 (control), MYC_384 and SOX17_96. […] Red bar=FDR<0.05. We observe a negative peak in bHLHzip domain of MYC as well as HMG box domain of SOX17. Both domains mediated binding to DNA. (D) Principal Component Analysis of RNA-sequencing for both biological replicates of GFP_147, MYC_384 and SOX17_96 expressing cell lines. (E) A375 RNAseq data was analyzed using Gene Set Enrichment Analysis. For MYC_384 versus GFP_147 over ODONNEL_TARGET_OF_MYC_and_TFRC. For SOX17_96 versus GFP_147 over PRANMOOJAGO_SOX4.
(§6) All those selected hits mapped to a known protein domain with known roles in protein-protein interaction or protein-DNA interaction. […] When the fold change of every tile on the protein amino acid positions was mapped, functional regions of the protein affecting cell growth were identified. For example, on RAF1, peaks corresponding to the Ras-binding domain (RBD) were identified, and the kinase domain (FIG. 8A). […] In addition, a region of MYC that affect cell growth was identified and mapped on the DNA binding domain bHLH (FIG. 8). […] To validate the results from the screen, A375-WT and -NRAS^Q61K were transduced with GFP_147, or RAF1_78, MYC_384, or KIT_499, or SOS_120 tiles and cell growth measured using CCK8 assay
(§7) 48 hours after plating (FIG. 9A). […] The CR2 domain of BRAF contain a 14-3-3 binding site and play a role in BRAF-MEK autoinhibitory complex which regulates MAPK pathway activation. One of the goals of this contextual PepTile screen was to identify peptides that would impair growth of NRAS cell line but not the parental, to address overall NRAS-driven drug resistance. For instance, more than 6000 peptide hits were detected that are exclusive to A375-NRAS^Q61K (FIG. 6). For example, ARHGAP20 and ARHGAP26 show a very different PepTile profiles between A375-NRAS^Q61K and A375-WT (FIG. 11) and seem to have more of an effect in the A375-NRAS^Q61K condition. Altogether, the Pan-Cancer PepTile screen show the potential of finding new potential peptides to target NRAS melanoma, as well as mapping protein domains involved in cellular growth in a given context.

[4] = test system: A375-NRAS^Q61K; assay: as above; format: cell-based, human; settings: peptide overexpression
From the text: as §4, §6, §7

[5] = test system: MYC transcriptional program (ODONNEL_TARGET_OF_MYC_and_TFRC); assay: RNA-sequencing GSEA of A375 expressing MYC_384 versus GFP_147; format: cell-based, human; settings: 5 days post-transduction
Protocol: as §5

[6] = test system: MDA-MB-231; settings: cited from earlier work

ELF4_39: 40-mer peptide tile of ELF4, AA start position 228, ETS domain
A375-WT Fitness Score [1]: −2.44 | A375-NRAS Fitness Score [2]: −1.35

EP300_99: 40-mer peptide tile of EP300, AA start position 588, KIX domain
A375-WT Fitness Score [1]: −3.20 | A375-NRAS Fitness Score [2]: 0.86

FER_38: 40-mer peptide tile of FER, AA start position 222, F-BAR domain (LKGIFDEYSQITSLVTEEIVNVHKEIQMSVEQIDPSTEYN; UniProt P16591 222-261, looked up, fragment)
A375-WT Fitness Score [1]: −2.21 | A375-NRAS Fitness Score [2]: −1.48

FLCN_43: 40-mer peptide tile of FLCN, AA start position 252, Longin domain (ACLHTSFAWLLKACGSRLTEKLLEGAPTEDTLVQMEKLAD; UniProt Q8NFG4 252-291, looked up, fragment)
A375-WT Fitness Score [1]: −1.76 | A375-NRAS Fitness Score [2]: −1.99

FZD3_55: 40-mer peptide tile of FZD3, AA start position 324, Transmembrane domain (IEKKALLFHASAWGIPGTLTIILLAMNKIEGDNISGVCFV; UniProt Q9NPG1 324-363, looked up, fragment)
A375-WT Fitness Score [1]: −3.21 | A375-NRAS Fitness Score [2]: −3.27

KIT_84: 40-mer peptide tile of KIT, AA start position 498, Transmembrane domain (GKTSAYFNFAFKGNNKEQIHPHTLFTPLLIGFVIVAGMMC; UniProt P10721 498-537, looked up, fragment)
A375-WT Fitness Score [1]: −3.23 | A375-NRAS Fitness Score [2]: −0.77 | cell growth compared to GFP_147 [3]: decreases cell growth | cell growth compared to GFP_147 [4]: much less affected

MAD1L1_78: 40-mer peptide tile of MAD1L1, AA start position 462, Coiled Coil domain (ELGGQKQRADMLEMELKMLKSQSSSAEQSFLFSREEADTL; UniProt Q9Y6D9 462-501, looked up, fragment)
A375-WT Fitness Score [1]: −4.42 | A375-NRAS Fitness Score [2]: −3.52

MTOR_42: 40-mer peptide tile of MTOR, AA start position 246, HEAT domain
A375-WT Fitness Score [1]: −3.36 | Fitness score ([1]; PanCancer Peptide Table (Table 3), lentivirally expressed 40-mer peptide tile, negative = depleted): −3.37 | A375-NRAS Fitness Score [2]: 1.01

MYC_65: 40-mer peptide tile of MYC, AA start position 384, bHLH domain (ELKRSFFALRDQIPELENNEKAPKVVILKKATAYILSVQA; UniProt P01106 384-423, looked up, fragment)
A375-WT Fitness Score [1]: −2.50 | A375-NRAS Fitness Score [2]: −0.47 | cell growth compared to GFP_147 ([3]; listed as MYC_384): cell growth defect; also recorded: decreases cell growth | cell growth compared to GFP_147 [4]: not affected | GSEA of MYC transcriptional program [5]: downregulation of their respective transcriptional programs | hit in previous screen [6]: identified and validated

PIK3CA_38: 40-mer peptide tile of PIK3CA, AA start position 222, RBD (AEAIRKKTRSMLLSSEQLKLCVLEYQGKYILKVCGCDEYF; UniProt P42336 222-261, looked up, fragment)
A375-WT Fitness Score [1]: −2.72 | A375-NRAS Fitness Score [2]: −0.85

RAF1_14: 40-mer peptide tile of RAF1, AA start position 78, RBD (LHDCLMKALKVRGLQPECCAVFRLLHEHKGKKARLDWNTD; UniProt P04049 78-117, looked up, fragment)
A375-WT Fitness Score [1]: −1.79 | A375-NRAS Fitness Score [2]: −0.50 | cell growth compared to GFP_147 [3]: decreases cell growth | cell growth compared to GFP_147 [4]: much less affected | hit in previous screen [6]: identified and validated

SMARCA4_257: 40-mer peptide tile of SMARCA4, AA start position 1536, Bromodomain (AQTFNLEGSLIYEDSIVLQSVFTSVRQKIEKEDDSEGEES; UniProt P51532 1536-1575, looked up, fragment)
A375-WT Fitness Score [1]: −4.98 | A375-NRAS Fitness Score [2]: −0.54

SMC3_124: 40-mer peptide tile of SMC3, AA start position 738, Coiled Coil domain (EMKMLKEKRQQSEKTFMPKQRSLQSLEASLHAMESTRESL; UniProt Q9UQE7 738-777, looked up, fragment)
A375-WT Fitness Score [1]: −3.08 | Fitness score ([1]; PanCancer Peptide Table, 40-mer peptide tile expressed from lentiviral library): −3.09 | A375-NRAS Fitness Score [2]: 0.13

SOS1_21: 40-mer peptide tile of SOS1, AA start position 120, HF domain
A375-WT Fitness Score [1]: −2.56 | A375-NRAS Fitness Score [2]: −0.81 | cell growth compared to GFP_147 [3]: decreases cell growth | cell growth compared to GFP_147 [4]: not affected

SUZ12_23: 40-mer peptide tile of SUZ12, AA start position 132, WDB1 domain (FKVDDMLSKVEKMKGEQESHSLSAHLQLTFTGFFHKNDKP; UniProt Q15022 132-171, looked up, fragment)
A375-WT Fitness Score [1]: −2.12 | A375-NRAS Fitness Score [2]: −0.27
